According to ChEMBL document CHEMBL6121000, “Corosolic acid and its derivatives targeting MCCC1 against insulin resistance and their hypoglycemic effect on type 2 diabetic mice” (Eur J Med Chem, 2025):
Converted amounts (≈) assume the structure as drawn. The source made the active and inactive calls. The rule behind the calls is not given here.

Assays:
[1] = Cytotoxicity against human HepG2 cells assessed as cell viability at 80 uM incubated for 24 hrs by CCK8 assay relative to control; assay type: toxicity, cell-based; conditions: HepG2 cells, read-out: Activity
[2] = Solubility of compound in PBS; assay type: physicochemical
[3] = Cytotoxicity against human HepG2 cells assessed as cell survival at 20 uM by MTT assay relative to control; assay type: toxicity, cell-based; conditions: read-out: Survival
[4] = tested on: Mus musculus; assay: Hypoglycemic activity in HFD-fed STZ-induced diabetic C57BL/6J mouse model assessed as improvement in triglyceride level in liver at 20 mg/kg, po administered everyday for 3 weeks; assay type: functional, organism-based
[5] = tested on: Mus musculus; assay: Hypoglycemic activity in HFD-fed STZ-induced diabetic C57BL/6J mouse model assessed as reversal of diabetes-reduced MCCC1 level in liver at 20 mg/kg, po administered everyday for 3 weeks by Western blot analysis; assay type: functional, organism-based
[6] = Clearance in Sprague-Dawley rat at 20 mg/kg, po measured for 24 hrs by HPLC-ESI-MS analysis; assay type: ADME, organism-based; conditions: in vivo
[7] = Half life in Sprague-Dawley rat at 20 mg/kg, po measured for 24 hrs by HPLC-ESI-MS analysis; assay type: ADME, organism-based; conditions: in vivo
[8] = Toxicity in Sprague-Dawley rat assessed as damage in colon at 20 mg/kg, po for 5 days; assay type: organism-based; conditions: in vivo, 120 h, time 5 day
[9] = tested on: Mus musculus; assay: Hypoglycemic activity in HFD-fed STZ-induced diabetic C57BL/6J mouse model assessed as decrease in blood glucose level at 20 mg/kg, po administered everyday for 3 weeks; assay type: functional, organism-based
[10] = Toxicity in Sprague-Dawley rat assessed as damage in lungs at 20 mg/kg, po for 5 days; assay type: organism-based; conditions: in vivo, 120 h, time 5 day
[11] = Toxicity in Sprague-Dawley rat assessed as reduction in number of crypts in colon tissue at 20 mg/kg, po for 5 days; assay type: organism-based; conditions: in vivo, 120 h, time 5 day
[12] = tested on: Mus musculus; assay: Hypoglycemic activity in HFD-fed STZ-induced diabetic C57BL/6J mouse model assessed as increase in AKT phosphorylation in liver at 20 mg/kg, po administered everyday for 3 weeks by Western blot analysis; assay type: functional, organism-based
[13] = Toxicity in Sprague-Dawley rat assessed as damage in heart at 20 mg/kg, po for 5 days; assay type: organism-based; conditions: in vivo, 120 h, time 5 day
[14] = Volume of distribution in Sprague-Dawley rat at 20 mg/kg, po measured for 24 hrs by HPLC-ESI-MS analysis; assay type: ADME, organism-based; conditions: in vivo
[15] = Toxicity in Sprague-Dawley rat assessed as damage in liver at 20 mg/kg, po for 5 days; assay type: organism-based; conditions: in vivo, 120 h, time 5 day
[16] = AUC (0 to t) in Sprague-Dawley rat at 20 mg/kg, po measured for 24 hrs by HPLC-ESI-MS analysis; assay type: ADME, organism-based; conditions: in vivo
[17] = Tmax in Sprague-Dawley rat at 20 mg/kg, po measured for 24 hrs by HPLC-ESI-MS analysis; assay type: ADME, organism-based; conditions: in vivo
[18] = Toxicity in Sprague-Dawley rat assessed as inflammatory cell infiltration in colon tissue at 20 mg/kg, po for 5 days; assay type: organism-based; conditions: in vivo, 120 h, time 5 day
[19] = Cytotoxicity against human HepG2 cells assessed as cell survival at 10 uM by MTT assay relative to control; assay type: toxicity, cell-based; conditions: read-out: Survival
[20] = tested on: HepG2; assay: Inhibition of insulin resistance in human HepG2 cells assessed as decrease in GlcN-induced glucose production at 20 uM preincubated for 1 hr followed by GlcN treatment for 18 hrs and subsequent insulin stimulation for 20 mins; assay type: functional, cell-based; conditions: time 19.33 hrs
[21] = MRT (0 to t) in Sprague-Dawley rat at 20 mg/kg, po measured for 24 hrs by HPLC-ESI-MS analysis; assay type: ADME, organism-based; conditions: in vivo
[22] = tested on: HepG2; assay: Lipid lowering activity in human HepG2 cells assessed as reduction in FFA-induced triglyceride content at 20 uM preincubated for 1 hr followed by FFA treatment for 24 hrs; assay type: functional, cell-based; conditions: time 25.0 hrs
[23] = Cmax in Sprague-Dawley rat at 20 mg/kg, po measured for 24 hrs by HPLC-ESI-MS analysis; assay type: ADME, organism-based; conditions: in vivo
[24] = Oral bioavailability in Sprague-Dawley rat at 20 mg/kg measured for 24 hrs by HPLC-ESI-MS analysis; assay type: ADME, organism-based; conditions: in vivo
[25] = tested on: Mus musculus; assay: Improvement in hepatic total cholesterol level of HFD-fed STZ-induced diabetic C57BL/6J mouse model at 20 mg/kg, po administered everyday for 3 weeks; assay type: functional, organism-based
[26] = tested on: Mus musculus; assay: Inhibition of glucose production in HFD-fed STZ-induced diabetic C57BL/6J mouse model at 20 mg/kg, po administered everyday for 3 weeks; assay type: functional, organism-based
[27] = tested on: HepG2; assay: Cytotoxicity against human HepG2 cells assessed as cell survival at 40 uM by MTT assay; assay type: toxicity, cell-based; conditions: hepg2, 40 µM
[28] = tested on: HepG2; assay: Lipid lowering activity in human HepG2 cells assessed as inhibition of FFA-induced triglyceride content at 20 uM preincubated for 1 hr followed by FFA treatment for 24 hrs relative to control; assay type: functional
[29] = tested on: Mus musculus; assay: Hypoglycemic activity in HFD-fed STZ-induced diabetic C57BL/6J mouse model assessed as increase in hepatic glycogen synthesis at 20 mg/kg, po administered everyday for 3 weeks; assay type: functional, organism-based
[30] = Toxicity in Sprague-Dawley rat assessed as damage in spleen at 20 mg/kg, po for 5 days; assay type: organism-based; conditions: in vivo, 120 h, time 5 day
[31] = tested on: Mus musculus; assay: Hypoglycemic activity in HFD-fed STZ-induced diabetic C57BL/6J mouse model assessed as increase in GLUT4 level in liver at 20 mg/kg, po administered everyday for 3 weeks by Western blot analysis; assay type: functional, organism-based

C[C@H]1[C@H](C)CC[C@]2(C(=O)O)CC[C@]3(C)C(=CC[C@@H]4[C@@]5(C)C[C@@H](O)[C@H](O)C(C)(C)[C@@H]5CC[C@]43C)[C@H]12 [COROSOLIC ACID]
viability at 24 h, 80 µM [1]: 13.5%
solubility [2]: 0.55 µM (≈ 0.26 µg/mL)
viability at 20 µM [3]: 101%
Activity [4]: Active
Activity [5]: Active
CL/F [6]: 23.1 mL/min/kg
half-life [7]: 16.5 h
Activity [8]: Non-toxic
Activity [9]: Active; Slight Decrease Was Observed
Activity [10]: Non-toxic
Activity [11]: Non-toxic
Activity [12]: Active
Activity [13]: Non-toxic
Vd [14]: 33.04048 L/kg
Activity [15]: Non-toxic
AUC(0-t) at 24 h [16]: 9200 ng·h/mL
Tmax [17]: 0.5 h
Activity [18]: Non-toxic
viability at 10 µM [19]: 96%
inhibition [20]: Active
MRT last at 24 h [21]: 10.2 h
Activity [22]: Active
Cmax [23]: 802 ng/mL
bioavailability [24]: < 1%
Activity [25]: inactive
inhibition [26]: inactive
Activity [27]: Toxic
inhibition at 20 µM [28]: 61.6%
Activity [29]: Active
Activity [30]: Non-toxic
Activity [31]: Active; Slight Increase Observed
